“Also recorded” adds a separate entry of the source.
How the values were obtained:
[1] = Half-life and brain penetration in mice; type: in vivo; conditions: CD1 mice, 1 mg/kg
From the text: The concentration ration plasma:brain is near to one which is adequate.

[2] = system: Aβ-plaques isolated from AD brains; experiment: Ex vivo disaggregation of Aβ-plaques (TEM); parameters: species or system human; conditions: compound 50 μM, 120 hours at 37° C., vs 1.5% DMSO
From the text: (§1) Amyloid-β plaques were purified from postmortem human AD brains obtained from patients diagnosed with advanced Alzheimer's (Braak stage V or VI) (Tissue Biobank at Case Western Reserve University-Cleveland Clinic) using ultracentrifugation with a sucrose gradient and cell sorting, as previously published.^38-39 Purified amyloid-β plaques were examined with polarized and fluorescence microscopy (Congo Red and Thioflavin-S staining) and scanning electron microscopy. Each aliquot of amyloid-β plaques was solubilized with 60 μL of 10 mM PBS buffer (pH 7.4). One extraction consisted of 0.28 mg/ml of protein, as measured with nanodrop (A260/280 nm). A volume of 20 μL of extraction was incubated with 1.5% DMSO (control) or compound 10 (50 μM) for 120 hours at 37° C. prior to visualization by transmission electron microscopy.
(§2) The protein quantification of the plaques isolated from AD brains were measured with nanodrop. […] Compound 10 was tested at 50 μM based on the protein levels and results obtained with PICUP experiments (FIG. 7). AP-plaque samples were incubated with 1.5% DMSO (control) or compound 10 (50 μM) in 10 mM PBS buffer (pH 7.4) for 120 hours at 37° C. prior to visualization by transmission electron microscopy. During the visualization of the grids, several paired helical filaments were observed.

[3] = system: paired helical filaments isolated from AD brains; experiment: Ex vivo disaggregation of paired helical filaments (TEM); parameters: species or system human; conditions: compound 50 μM, 120 hours at 37° C., vs 1.5% DMSO
From the text: as §1, §2

[4] = biological target: T1, α-syn (Homo sapiens, UniProt P37840); experiment: Transmission electron microscopy (TEM) of α-syn fibrils; type: biochemical; conditions: protein 60 μM, compound 600 μM (1:10), 24 hours at 37° C.
T1 construct: purchased rPeptide
Procedure: (§3) To confirm the general anti-fibrillar effect of compound 10, transmission electron microscopy (TEM) was used as an orthogonal assay. After incubating recombinant proteins (at 60 μM) with 600 μM compound 10 for 24 hours at 37° C., TEM was utilized to detect fibril formation.^32 A volume of 10 μL was applied on a 400-mesh Formvar-carbon-coated copper grid (Electron Microscopy Sciences, Hatfield, PA). The grids were incubated for 1 minute and washed three times with distilled water. They were carefully air-dried and incubated for 1 minute in a fresh solution of 1% uranyl acetate. Samples were air-dried and observed using a transmission microscope. Visualization of the grids was performed with transmission electron microscopy (JEOL 1400 Flash, Japan). Acquisition of pictures was performed with the following settings: accelerating voltage of 100 kV and magnification of 40k.

[5] = biological target: T2, p-tau isoform 1N4R (Homo sapiens, UniProt P10636); type: biochemical; conditions: protein 60 μM, compound 600 μM (1:10), 24 hours at 37° C.
T2 construct: made in house
T2 sequence (P10636 1-412 isoform P10636-7): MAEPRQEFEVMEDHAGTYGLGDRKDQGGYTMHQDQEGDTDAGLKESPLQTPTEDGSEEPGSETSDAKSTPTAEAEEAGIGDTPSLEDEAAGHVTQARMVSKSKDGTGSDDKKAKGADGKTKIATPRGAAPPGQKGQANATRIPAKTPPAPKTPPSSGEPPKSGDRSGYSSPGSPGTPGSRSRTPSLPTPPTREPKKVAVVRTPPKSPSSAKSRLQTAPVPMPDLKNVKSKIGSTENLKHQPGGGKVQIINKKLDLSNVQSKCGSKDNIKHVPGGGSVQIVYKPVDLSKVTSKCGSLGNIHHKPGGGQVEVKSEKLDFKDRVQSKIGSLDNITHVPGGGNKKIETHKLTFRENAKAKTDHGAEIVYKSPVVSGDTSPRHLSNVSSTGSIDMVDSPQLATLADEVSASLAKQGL
Procedure: as §3

[6] = biological target: T3, tau isoform 2N4R (Homo sapiens, UniProt P10636); experiment: PICUP cross-linking assay of tau oligomer formation; type: biochemical
T3 construct: made in house; host or cells: E. coli BL21(DE3)
T3 sequence (P10636 1-441 isoform P10636-8): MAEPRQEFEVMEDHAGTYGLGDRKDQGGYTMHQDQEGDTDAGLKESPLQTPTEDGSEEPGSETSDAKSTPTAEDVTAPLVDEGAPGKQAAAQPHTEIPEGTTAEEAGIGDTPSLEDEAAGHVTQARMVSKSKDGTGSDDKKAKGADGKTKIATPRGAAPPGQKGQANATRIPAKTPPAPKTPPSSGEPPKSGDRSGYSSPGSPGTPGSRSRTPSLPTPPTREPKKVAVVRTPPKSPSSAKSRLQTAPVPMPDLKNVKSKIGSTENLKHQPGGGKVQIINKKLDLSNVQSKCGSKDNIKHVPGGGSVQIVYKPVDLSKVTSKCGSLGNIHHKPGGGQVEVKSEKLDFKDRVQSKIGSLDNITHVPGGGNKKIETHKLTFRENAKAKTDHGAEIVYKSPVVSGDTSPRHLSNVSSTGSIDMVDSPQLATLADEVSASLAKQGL
Procedure: Chemical and peptide source. DMSO and thioflavin-T (ThT) were purchased from Alfa Aesar (Ward Hill, MA). Procuration of recombinant α-syn was from rPeptide (WatKinsville, GA). The recombinant p-tau isoform 1N4R was prepared as published previously.^31, 36 Concerning the preparation of tau 2N4R, bacterial expression plasmid consisting of the vector pRK172 carrying a cDNA encoding the human Tau 2N4R isoform was a kind gift of Dr. David Eliezer (Weill Cornell Medicine). For protein expression, E. coli BL21(DE3) cells were transformed with the plasmid and grown in LB media supplemented with ampicillin (100 μg/mL). Protein over-expression was induced by the addition of 1 mM IPTG for 4 h at 37° C., and cells were pelleted by centrifugation at 6,000 g for 15 min at 4° C. The cells were resuspended in lysis buffer (20 mM MES, 400 mM NaCl, 0.2 mM MgCl2, 1 mM EGTA, protease inhibitor cocktail (P8340, Sigma Aldrich), 0.25 mg/mL lysozyme, and 1 μg/mL DNase I, pH 6.8) and lysed by a French press cell disruptor at 4° C., and the lysate was boiled for 20 min. Denatured proteins were pelleted by centrifugation at 30,000 g for 30 min at 4° C., and the supernatant was dialyzed overnight against cation exchange buffer (20 mM MES, 50 mM NaCl, 1 mM MgCl2, 1 mM EGTA, 2 mM DTT, 0.1 mM PMSF, pH 6.8). The dialysate was loaded onto a HiPrep SP HP column, and proteins were eluted with a linear gradient ranging from 50 mM to 1 M NaCl. Fractions containing tau isoform 2N4R were pooled, and the resulting protein solution was dialyzed against PBS (pH 7.4) and stored at −80° C.
PICUP is a technique in which oligomer formation is induced by cross-linking. To induce oligomerization by cross-linking, α-syn (from Rpeptide, LLC) and tau isoform 2N4R were diluted in 10 mM phosphate buffer (pH 7.4) to reach a final concentration of 10 μM. Different compounds were added to the protein solution at a final concentration of 50 μM, resulting in a molar ratio of 1:5. […]

For `c1cc(Nc2ncnc(Nc3cccc4[nH]ccc34)n2)c2cc[nH]c2c1` [Compound 10, N2,N4-bis(1H-indol-4-yl)-1,3,5-triazine-2,4-diamine], the “concentration ratio plasma:brain” value [1] was “near to one”, the “crossing of the blood brain barrier” value [1] was “crossed the blood brain barrier” and the half-life [1] was “short half-life”. The “disaggregation of Aβ-plaques (TEM, in words)” value [2] was “smaller AP-plaques; also recorded: disaggregated human Aβ plaques and NFTs”, the “disaggregation of paired helical filaments (TEM, in words)” value [3] was “shorter paired helical filaments; also recorded: disaggregated human Aβ plaques and NFTs” and the “α-syn fibril ultrastructure (TEM)” value [4] was “a range of shorter fibrils to amorphous protein; also recorded: rare short fibrils”. The “p-tau isoform 1N4R fibril ultrastructure (TEM)” value [5] was “less fibrils resulted from this treatment”, the “tau oligomer formation (PICUP, in words)” value ([6]; compound 50 μM, high molecular weight oligomers around 190 kDa) was “inhibited both α-syn and tau oligomer formation” and the “tau isoform 2N4R oligomerization at different concentrations (PICUP)” value ([6]; compound 3.125 to 50 μM) was “effective in reducing oligomerization of α-syn and tau isoform 2N4R in a dose-dependent manner”.

Source: patent US20260285847A1, “SYMMETRIC AMINOINDOLE-LINKED TRIAZINE FOR A DUAL EFFECT ON ALPHA-SYNUCLEIN AND TAU ISOFORM 2N4R FIBRILLIZATION” (Purdue Research Foundation, priority 2023, published 2026)
